Results taken from the NIST ThermoML archive (doi:10.1016/j.jct.2004.12.008).

Test: xn = mol fraction of the nth substance listed
Conditions: 101 kPa, Liquid

O=[N+]([O-])c1ccccc1 [nitrobenzene] + CCc1ccccc1
Conditions | mass density [kg/m3]
293.15 K, x2 = 0 | 1202.95
293.15 K, x2 = 0.0478 | 1184.56
293.15 K, x2 = 0.1275 | 1154.51
293.15 K, x2 = 0.1842 | 1133.58
293.15 K, x2 = 0.2576 | 1107.04
293.15 K, x2 = 0.3238 | 1083.6
293.15 K, x2 = 0.4023 | 1056.42
293.15 K, x2 = 0.4578 | 1037.57
293.15 K, x2 = 0.5139 | 1018.83
293.15 K, x2 = 0.5813 | 996.7
293.15 K, x2 = 0.6423 | 977.03
293.15 K, x2 = 0.6931 | 960.9
293.15 K, x2 = 0.7592 | 940.24
293.15 K, x2 = 0.8343 | 917.18
293.15 K, x2 = 0.8824 | 902.65
293.15 K, x2 = 0.9587 | 879.94
303.15 K, x2 = 0 | 1193.56
303.15 K, x2 = 0.054 | 1172.67
303.15 K, x2 = 0.1213 | 1147.16
303.15 K, x2 = 0.1983 | 1118.67
303.15 K, x2 = 0.2489 | 1100.34
303.15 K, x2 = 0.3138 | 1077.25
303.15 K, x2 = 0.3854 | 1052.32
303.15 K, x2 = 0.4428 | 1032.74
303.15 K, x2 = 0.5098 | 1010.3
303.15 K, x2 = 0.5721 | 989.85
303.15 K, x2 = 0.6219 | 973.76
303.15 K, x2 = 0.6839 | 954.06
303.15 K, x2 = 0.7429 | 935.62
303.15 K, x2 = 0.8013 | 917.67
303.15 K, x2 = 0.8632 | 898.94
303.15 K, x2 = 0.9328 | 878.24
313.15 K, x2 = 0 | 1183.37
313.15 K, x2 = 0.0538 | 1162.71
313.15 K, x2 = 0.1387 | 1130.89
313.15 K, x2 = 0.1932 | 1110.93
313.15 K, x2 = 0.2378 | 1094.87
313.15 K, x2 = 0.2947 | 1074.72
313.15 K, x2 = 0.3571 | 1053.04
313.15 K, x2 = 0.4139 | 1033.68
313.15 K, x2 = 0.4917 | 1007.73
313.15 K, x2 = 0.5523 | 987.93
313.15 K, x2 = 0.6139 | 968.18
313.15 K, x2 = 0.6731 | 949.53
313.15 K, x2 = 0.7248 | 933.5
313.15 K, x2 = 0.7932 | 912.63
313.15 K, x2 = 0.8536 | 894.54
313.15 K, x2 = 0.9248 | 873.58
323.15 K, x2 = 0 | 1172.38
323.15 K, x2 = 0.0617 | 1149.22
323.15 K, x2 = 0.1482 | 1117.58
323.15 K, x2 = 0.2213 | 1091.54
323.15 K, x2 = 0.2787 | 1071.53
323.15 K, x2 = 0.3234 | 1056.2
323.15 K, x2 = 0.3781 | 1037.74
323.15 K, x2 = 0.4344 | 1019.07
323.15 K, x2 = 0.4822 | 1003.47
323.15 K, x2 = 0.5339 | 986.86
323.15 K, x2 = 0.592 | 968.49
323.15 K, x2 = 0.6739 | 943.12
323.15 K, x2 = 0.7429 | 922.2
323.15 K, x2 = 0.8137 | 901.15
323.15 K, x2 = 0.8735 | 883.68
323.15 K, x2 = 0.9572 | 859.66
333.15 K, x2 = 0 | 1160.59
333.15 K, x2 = 0.0439 | 1144.65
333.15 K, x2 = 0.1249 | 1115.84
333.15 K, x2 = 0.1892 | 1093.51
333.15 K, x2 = 0.2599 | 1069.48
333.15 K, x2 = 0.3389 | 1043.25
333.15 K, x2 = 0.4042 | 1022.06
333.15 K, x2 = 0.4672 | 1002.01
333.15 K, x2 = 0.5243 | 984.15
333.15 K, x2 = 0.5902 | 963.91
333.15 K, x2 = 0.6645 | 941.54
333.15 K, x2 = 0.7309 | 921.93
333.15 K, x2 = 0.8021 | 901.28
333.15 K, x2 = 0.8623 | 884.12
333.15 K, x2 = 0.8932 | 875.4
333.15 K, x2 = 0.9621 | 856.21
343.15 K, x2 = 0 | 1148
343.15 K, x2 = 0.0535 | 1129.57
343.15 K, x2 = 0.1122 | 1109.7
343.15 K, x2 = 0.1834 | 1086.08
343.15 K, x2 = 0.2478 | 1065.16
343.15 K, x2 = 0.3044 | 1047.11
343.15 K, x2 = 0.3782 | 1024
343.15 K, x2 = 0.4519 | 1001.42
343.15 K, x2 = 0.513 | 983.04
343.15 K, x2 = 0.5801 | 963.22
343.15 K, x2 = 0.6529 | 942.11
343.15 K, x2 = 0.7238 | 921.93
343.15 K, x2 = 0.7932 | 902.5
343.15 K, x2 = 0.852 | 886.31
343.15 K, x2 = 0.8932 | 875.09
343.15 K, x2 = 0.9423 | 861.85
353.15 K, x2 = 0 | 1134.61
353.15 K, x2 = 0.0723 | 1111.4
353.15 K, x2 = 0.1298 | 1093.3
353.15 K, x2 = 0.1984 | 1072.07
353.15 K, x2 = 0.2584 | 1053.83
353.15 K, x2 = 0.3133 | 1037.4
353.15 K, x2 = 0.3891 | 1015.12
353.15 K, x2 = 0.4501 | 997.51
353.15 K, x2 = 0.524 | 976.53
353.15 K, x2 = 0.5818 | 960.38
353.15 K, x2 = 0.663 | 938.08
353.15 K, x2 = 0.7483 | 915.1
353.15 K, x2 = 0.7964 | 902.32
353.15 K, x2 = 0.8423 | 890.26
353.15 K, x2 = 0.8893 | 878.02
353.15 K, x2 = 0.9529 | 861.65
